One assay concerns Male Sprague-Dawley rats. The assay is described as follows: Low-intensity tail flick in rats. The class given is in vivo. The conditions noted are these: po, rat, p.o., MPE, read-out: Low-intensity tail flick rat p.o. % effect (dose [mg/kg]). The source says: The antinociceptive activity of the test substance against an acute noxic thermal stimulant was examined in the tail-flick test in rats using the method described by D′Amour and Smith (J. Pharm. Exp. Ther. 72, 74 79 (1941)). Male Sprague-Dawley rats weighing between 200 and 250 g were used (breeder: Janvier, Le Genest St. Isle, France). The animals were placed in special test compartments and the base of the tail was exposed to a focused light beam from an analgesia meter (model 2011, Rhema Labortechnik, Hofheim, Germany). 10 animals were used per group. Before administering a substance according to the invention, the tail-flick latency (time from switching on the light beam to the flick of the tail) was measured twice at an interval of five minutes and the average was defined as the control latency time. The intensity of the light beam was chosen so that the control latency time was 7 to 9 seconds.
The measurement of the tail-flick latency was then repeated 10, 20, 30 and 60 minutes after peroral administration of the substance. The antinociceptive action of the test substance was determined as the increase in the tail-flick latency time using the following formula:
where T0=control latency time before administration of the substance, T1=latency time after administration of the substance, T2=maximum exposure time to the light beam (30 seconds), MPE=maximum possible effect.
Analysis of variance (repeated measures ANOVA) was used to test for statistically significant differences between the substance and vehicle group. The significance level was set at ≦0.05.

For another assay, the target named is T1, KCNQ2/3 channels (Homo sapiens, UniProt O43525+O43526).
T1 construct: expressed in transfected cells; host or cells: CHO-K1 cells
Briefly: Fluorescence assay using a voltage-sensitive dye (fluorimetry). It is filed as cell-based. Conditions: for EC50: CHO-K1 cells expressing KCNQ2/3 channels; for Emax at 1 µM: 50 μM retigabine = 100%, CHO-K1 cells expressing KCNQ2/3, read-out: Fluorimetry % efficacy at 1 μM (50 μM retigabine = 100%). A digest of the protocol: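 CHO-K1 cells expressing human KCNQ2/3 were loaded with membrane-potential dye in ES buffer (pH 7.4) for 45 min, then incubated with compound for 30 min at room temperature. Fluorescence (525/560 nm) before (F1) and at peak after KCl (92 mM final) (F2) yielded agonist activity versus buffer controls; EC50 calculated.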

As a reminder, the EC50 is the midpoint of the concentration-response curve.

Each structure is given as a SMILES string.

As for `CCSc1nc2cc(C(F)(F)F)ccc2c(C)c1C(=O)NCCC(C)C` [compound 37], the inhibition in vivo at 10 mg/kg in the assay with Male Sprague-Dawley rats was 0%. On KCNQ2/3 channels, it took 85 nM to reach a half-maximal effect (EC50) and the Emax at 1 µM stood at 121%.
Turning to `CCSc1nc2cc(C(F)(F)F)ccc2c(C)c1C(=O)NCc1ccccc1O` [compound 112, 2-Ethylsulfanyl-N-[(2-hydroxyphenyl)-methyl]-4-methyl-7-(trifluoromethyl)-quinoline-3-carboxamide], the inhibition in vivo at 10 mg/kg in the assay with Male Sprague-Dawley rats came to 17%. Moreover, on KCNQ2/3 channels, a half-maximal effect (EC50) was put at 130 nM and the Emax at 1 µM was found to be 211%.
Consider `Cc1c(C(=O)NCc2ccc(F)cc2)c(SC(C)(C)C)nc2cc(C(F)(F)F)ccc12` [compound 94], for which the inhibition in vivo at 4.64 mg/kg in the assay with Male Sprague-Dawley rats (dose 4.64 mg/kg) came out at 71%. In addition, on KCNQ2/3 channels, the EC50 was determined as 54 nM and the Emax at 1 µM turned out to be 162%.
As to `CCSc1nc2cc(C(F)(F)F)ccc2c(C)c1C(=O)NCc1ccc(F)cc1` [compound 77], the inhibition in vivo at 10 mg/kg in the assay on Male Sprague-Dawley rats was determined as 37%. At KCNQ2/3 channels, the EC50 came to 105 nM and the Emax at 1 µM came to 137%.

Source of the values: patent US20100234372A1, “SUBSTITUTED 2-MERCAPTOQUINOLINE-3-CARBOXAMIDES AS KCNQ2/3 MODULATORS” (GRUNENTHAL GMBH, priority 2009, published 2010).
